# Reference: patent publication US20260042755A1, “GPR6 INVERSE AGONISTS” (MapLight Therapeutics, Inc., priority 2022, published 2026)
# Assays:
# GPR3 = molecular target: T1, GPR3 (Homo sapiens, UniProt P46089); assay: GPR3 antagonist functional cAMP assay (LANCE Ultra cAMP TR-FRET, CHO cells stably expressing GPR3); format: cell-based
# T1 construct: expressed in transfected cells; host or cells: CHO cells
# In short: (§1)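 Compounds, at 0.1% final DMSO, acted on the cells for 45 minutes at 37 °C in the presence of the phosphodiesterase inhibitor Ro 20-1724 (150 μM). After lysis and detection, plates were shaken 1 h at room temperature and emission at 665 nm was recorded. Normalized data gave IC50 values.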
# GPR6 = molecular target: T2, GPR6 (Homo sapiens, UniProt P46095); assay: GPR6 antagonist functional cAMP assay (LANCE Ultra cAMP TR-FRET, CHO cells stably expressing GPR6); format: cell-based
# T2 construct: expressed in transfected cells; host or cells: CHO cells
# In short: as §1
# [1] = procedure as described in Example 24
# [2] = CHO cells stably expressing GPR3, cAMP assay (Example 24)
# [3] = CHO cells stably expressing GPR6, cAMP assay (Example 24)
# [4] = CHO cells stably expressing GPR3, cAMP assay
# [5] = CHO cells stably expressing GPR6, cAMP assay
# T2 sequence (P46095 whole entry): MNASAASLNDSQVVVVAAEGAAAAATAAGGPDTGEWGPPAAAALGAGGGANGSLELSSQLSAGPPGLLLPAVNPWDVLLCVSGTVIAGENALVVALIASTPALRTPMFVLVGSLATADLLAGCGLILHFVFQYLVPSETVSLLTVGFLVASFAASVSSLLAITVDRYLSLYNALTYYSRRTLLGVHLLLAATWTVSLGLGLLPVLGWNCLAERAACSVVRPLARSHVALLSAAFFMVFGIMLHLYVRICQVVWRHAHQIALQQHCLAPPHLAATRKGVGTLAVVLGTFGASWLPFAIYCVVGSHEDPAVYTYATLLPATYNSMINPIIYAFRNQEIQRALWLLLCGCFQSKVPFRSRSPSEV
# T1 sequence (P46089 whole entry, species assumed): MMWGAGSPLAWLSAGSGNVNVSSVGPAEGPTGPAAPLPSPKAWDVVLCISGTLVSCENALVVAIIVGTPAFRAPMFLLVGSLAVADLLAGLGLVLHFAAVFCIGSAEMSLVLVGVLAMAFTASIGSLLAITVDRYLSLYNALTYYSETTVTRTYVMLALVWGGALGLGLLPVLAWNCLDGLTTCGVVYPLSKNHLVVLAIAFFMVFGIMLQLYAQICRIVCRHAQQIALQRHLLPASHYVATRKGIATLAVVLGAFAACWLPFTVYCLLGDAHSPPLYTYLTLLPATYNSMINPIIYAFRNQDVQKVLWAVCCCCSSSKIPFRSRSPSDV
SMILES,IC50 (GPR3; procedure of Example 24),IC50 (GPR6; procedure of Example 24),IC50 (GPR3; [2]),IC50 (GPR6; [3]),also measured
"CC(=O)N1CCc2nc(N3CCCC(Oc4cc(F)ccc4F)C3)c(-c3cnn(C)c3)nc2C1 (stereo not shown) [Compound 339, 1-{2-[3-(2,5-difluorophenoxy)piperidin-1-yl]-3-(1-methyl-1H-pyrazol-4-yl)-5H,6H,7H,8H-pyrido[3,4-b]pyrazin-6-yl}ethan-1-one]",100 to 1000 nM,≥ 30000 nM,–,–,–
"CS(=O)(=O)c1ccc(CN2CCN(c3nc4ccncc4nc3-c3cn[nH]c3)CC2)c(F)c1 [Compound 22, 1-[(2-fluoro-4-methanesulfonylphenyl)methyl]-4-[3-(1H-pyrazol-4-yl)pyrido[3,4-b]pyrazin-2-yl]piperazine]",–,–,–,–,IC50 (GPR3; [1]): 100 to 1000 nM; IC50 (GPR6; [1]): ≥ 30000 nM
"COC(C)(C)C(=O)N1CCc2nc(N3CCC(Oc4ccc(F)cc4F)CC3)c(-c3cn[nH]c3)nc2C1 [Compound 174, 1-{2-[4-(2,4-difluorophenoxy)piperidin-1-yl]-3-(1H-pyrazol-4-yl)-5H,6H,7H,8H-pyrido[3,4-b]pyrazin-6-yl}-2-methoxy-2-methylpropan-1-one]",–,–,1000 to 30000 nM,100 to 1000 nM,–
"CC(=O)N1CCc2nc(N3CCC(Oc4ccc(F)cc4F)CC3)c(C3CCS(=O)(=O)CC3)nc2C1 [Compound 218, 4-{6-acetyl-2-[4-(2,4-difluorophenoxy)piperidin-1-yl]-5H,6H,7H,8H-pyrido[3,4-b]pyrazin-3-yl}-1λ^6-thiane-1,1-dione]",–,–,1000 to 30000 nM,1000 to 30000 nM,–
"CC(=O)N1CCc2nc(N3CCC(Oc4ccc(F)cc4F)CC3)c(C3CCN(S(C)(=O)=O)C3)nc2C1 (stereo not shown) [Compound 543, 1-{2-[4-(2,4-difluorophenoxy)-1-piperidyl]-3-(1-mesyl-3-pyrrolidinyl)-5,6,7,8-tetrahydro-1,4,6-triaza-6-naphthyl}-1-ethanone]",–,–,–,–,IC50 (GPR3; [4]): 1000 to 30000 nM; IC50 (GPR6; [5]): 1000 to 30000 nM
"COC(C)(C)C(=O)N1CCc2nc(N3CCC(Oc4ccc(F)cc4F)CC3)c(-c3cnn(C4CCCCO4)c3)nc2C1 (stereo not shown) [Compound 173, 1-{2-[4-(2,4-difluorophenoxy)piperidin-1-yl]-3-[1-(oxan-2-yl)-1H-pyrazol-4-yl]-5H,6H,7H,8H-pyrido[3,4-b]pyrazin-6-yl}-2-methoxy-2-methylpropan-1-one]",–,–,1000 to 30000 nM,1000 to 30000 nM,–
"COc1ccc(CN2CCN(c3nc4c(nc3-c3cnn(C)c3)CN(C(C)=O)CC4)CC2)cn1 [Compound 345, 1-(2-{4-[(6-methoxypyridin-3-yl)methyl]piperazin-1-yl}-3-(1-methyl-1H-pyrazol-4-yl)-5H,6H,7H,8H-pyrido[3,4-b]pyrazin-6-yl)ethan-1-one]",1000 to 30000 nM,1000 to 30000 nM,–,–,–
"CC(C)(O)C(=O)N1CCc2nc(N3CCC(Oc4ccc(F)cc4F)CC3)c(-c3ccc(F)c(N)n3)nc2C1 [Compound 639, 1-{3-(6-amino-5-fluoro-2-pyridyl)-2-[4-(2,4-difluorophenoxy)-1-piperidyl]-5,6,7,8-tetrahydro-1,4,6-triaza-6-naphthyl}-2-hydroxy-2-methyl-1-propanone]",100 to 1000 nM,100 to 1000 nM,–,–,–
"COc1ccc(C(=O)N2CCN(c3nc4c(nc3-c3cnn(C)c3)CN(C(C)=O)CC4)CC2)c(F)c1 [Compound 254, 1-{2-[4-(2-fluoro-4-methoxybenzoyl)piperazin-1-yl]-3-(1-methyl-1H-pyrazol-4-yl)-5H,6H,7H,8H-pyrido[3,4-b]pyrazin-6-yl}ethan-1-one]",–,–,1000 to 30000 nM,1000 to 30000 nM,–
"CC(C)(O)[C@H](O)c1cc2nc(-c3cnn(C(F)F)c3)c(N3CCN(Cc4ccccc4F)CC3)nc2cn1 (single isomer, unassigned) [Compound 685]",1000 to 30000 nM,100 to 1000 nM,–,–,–
"CC(=O)N1CCc2nc(N3CCN(Cc4ccccc4Br)CC3)c(-c3cnn(C)c3)nc2C1 [Compound 508, 1-(2-{4-[(o-bromophenyl)methyl]-1-piperazinyl}-3-(1-methyl-4-pyrazolyl)-5,6,7,8-tetrahydro-1,4,6-triaza-6-naphthyl)-1-ethanone]",–,–,–,–,IC50 (GPR3; [4]): 1000 to 30000 nM; IC50 (GPR6; [5]): 100 to 1000 nM
"COc1cncc(-c2nc3cnc(CO)cc3nc2N2CCN(Cc3ccc(F)cc3F)CC2)n1 [Compound 95, (2-(4-(2,4-difluorobenzyl)piperazin-1-yl)-3-(6-methoxypyrazin-2-yl)pyrido[3,4-b]pyrazin-7-yl)methanol]",–,–,1000 to 30000 nM,1000 to 30000 nM,–
"COc1ccc(CN2CCN(c3nc4c(nc3-c3cnn(C)c3)CN(C(C)=O)CC4)CC2)c(OC)c1 [Compound 322, 1-(2-{4-[(2,4-dimethoxyphenyl)methyl]piperazin-1-yl}-3-(1-methyl-1H-pyrazol-4-yl)-5H,6H,7H,8H-pyrido[3,4-b]pyrazin-6-yl)ethan-1-one]",1000 to 30000 nM,≥ 30000 nM,–,–,–
"CNC(=O)N1CCc2nc(N3CCC(Oc4ccc(F)cc4F)CC3)c(-c3cn[nH]c3)nc2C1 [Compound 180, 2-[4-(2,4-difluorophenoxy)piperidin-1-yl]-N-methyl-3-(1H-pyrazol-4-yl)-5H,6H,7H,8H-pyrido[3,4-b]pyrazine-6-carboxamide]",–,–,1000 to 30000 nM,1000 to 30000 nM,–
"C=CC(=O)N1CCc2nc(N3CCC(Oc4ccc(F)cc4F)CC3)c(-c3cnn(C4CCCCO4)c3)nc2C1 (stereo not shown) [Compound 185, 1-{2-[4-(2,4-difluorophenoxy)piperidin-1-yl]-3-[1-(oxan-2-yl)-1H-pyrazol-4-yl]-5H,6H,7H,8H-pyrido[3,4-b]pyrazin-6-yl}prop-2-en-1-one]",–,–,1000 to 30000 nM,100 to 1000 nM,–
"CCn1cc(-c2nc3cnc([C@@](C)(O)C(C)(C)O)cc3nc2N2CCN(Cc3ccc(F)cc3F)CC2)cn1 (single isomer, unassigned) [Compound 690]",1000 to 30000 nM,100 to 1000 nM,–,–,–
"COc1cccc(-c2nc3cnccc3nc2N2CC3(CC(Oc4ccc(F)cc4F)C3)C2)n1 [Compound 104, 6-(2,4-difluorophenoxy)-2-[3-(6-methoxypyridin-2-yl)pyrido[3,4-b]pyrazin-2-yl]-2-azaspiro[3.3]heptane]",–,–,1000 to 30000 nM,1000 to 30000 nM,–
"CC(=O)N1CCc2nc(N3CCC(Oc4ccc(F)cc4F)CC3)c(-c3cn[nH]c3C(C)C)nc2C1 [Compound 31, 1-{2-[4-(2,4-difluorophenoxy)piperidin-1-yl]-3-[5-(propan-2-yl)-1H-pyrazol-4-yl]-5H,6H,7H,8H-pyrido[3,4-b]pyrazin-6-yl}ethan-1-one]",–,–,–,–,IC50 (GPR3; [1]): 1000 to 30000 nM; IC50 (GPR6; [1]): 1000 to 30000 nM

# Further lines, with some results ahead:
IC50 (GPR3; procedure of Example 24),IC50 (GPR6; procedure of Example 24),IC50 (GPR3; [2]),IC50 (GPR6; [3]),SMILES,also measured
–,–,1000 to 30000 nM,1000 to 30000 nM,"Cn1cc(-c2nc3cnc(C(O)CO)cc3nc2N2CCC(Oc3ccc(F)cc3F)CC2)cn1 (stereo not shown) [Compound 470, 1-(2-(4-(2,4-difluorophenoxy)piperidin-1-yl)-3-(1-methyl-1H-pyrazol-4-yl)pyrido[3,4-b]pyrazin-7-yl)ethane-1,2-diol]",–
–,–,1000 to 30000 nM,100 to 1000 nM,"COCCOc1cc2nc(N3CCC(Oc4ccc(F)cc4F)CC3)c(-c3cnn(C)c3)nc2cn1 [Compound 381, 4-(2,4-difluorophenoxy)-1-[7-(2-methoxyethoxy)-3-(1-methyl-1H-pyrazol-4-yl)pyrido[3,4-b]pyrazin-2-yl]piperidine]",–
–,–,1000 to 30000 nM,1000 to 30000 nM,"CC(=O)N1CCc2nc(N3CCC(Oc4ccc(F)cc4F)CC3)c(-c3ccccn3)nc2C1 [Compound 79, 1-{2-[4-(2,4-difluorophenoxy)piperidin-1-yl]-3-(pyridin-2-yl)-5H,6H,7H,8H-pyrido[3,4-b]pyrazin-6-yl}ethan-1-one]",–
< 100 nM,< 100 nM,–,–,"CC(C)(O)[C@H](O)c1cc2nc(-c3cnn(CF)c3)c(N3CCC(Cc4ccc(F)cc4F)CC3)nc2cn1 (single isomer, unassigned) [Compound 787]",–
1000 to 30000 nM,100 to 1000 nM,–,–,"CC(C)(O)Cc1cc2nc(N3CCC(Oc4ccc(F)cc4F)CC3)c(-c3cnn(C4CC4)c3)nc2cn1 [Compound 705, 1-{3-(1-cyclopropyl-4-pyrazolyl)-2-[4-(2,4-difluorophenoxy)-1-piperidyl]-1,4,6-triaza-7-naphthyl}-2-methyl-2-propanol]",–
–,–,1000 to 30000 nM,100 to 1000 nM,"CC(C)(O)C(O)c1cc2nc(N3CCC(Oc4ccc(F)cc4F)CC3)c(-c3cnn(C4CC4)c3)nc2cn1 (stereo not shown) [Compound 469, 1-[3-(1-cyclopropyl-1H-pyrazol-4-yl)-2-[4-(2,4-difluorophenoxy)piperidin-1-yl]pyrido[3,4-b]pyrazin-7-yl]-2-methylpropane-1,2-diol]",–
1000 to 30000 nM,100 to 1000 nM,–,–,"CCn1cc(-c2nc3cc(C(C)(O)C(C)(C)O)ncc3nc2N2CCC(Oc3ccc(F)cc3F)CC2)cn1 (single isomer, unassigned) [Compound 741]",–
–,–,1000 to 30000 nM,1000 to 30000 nM,"CC(=O)N1CCc2nc(N3CCC(Oc4ccc(F)cc4F)CC3)c(-c3cncc(C)n3)nc2C1 [Compound 444, 1-{2-[4-(2,4-difluorophenoxy)piperidin-1-yl]-3-(6-methylpyrazin-2-yl)-5H,6H,7H,8H-pyrido[3,4-b]pyrazin-6-yl}ethan-1-one]",–
–,–,1000 to 30000 nM,1000 to 30000 nM,"Cn1cc(-c2nc3cnc(N)cc3nc2N2CCC(Oc3cc(Cl)ccc3Cl)CC2)cn1 [Compound 443, 2-[4-(2,5-dichlorophenoxy)piperidin-1-yl]-3-(1-methyl-1H-pyrazol-4-yl)pyrido[3,4-b]pyrazin-7-amine]",–
1000 to 30000 nM,< 100 nM,–,–,"CC(C)(O)C(C)(O)c1cc2nc(-c3cnn(C(F)F)c3)c(N3CCC(Oc4ccc(F)cc4F)CC3)nc2cn1 (stereo not shown) [Compound 674, 2-{2-[1-(difluoromethyl)-4-pyrazolyl]-3-[4-(2,4-difluorophenoxy)-1-piperidyl]-1,4,6-triaza-7-naphthyl}-3-methyl-2,3-butanediol]",–
1000 to 30000 nM,100 to 1000 nM,–,–,"CO[C@H](CO)c1cc2nc(N3CCC(Oc4ccc(F)cc4F)CC3)c(-c3cnn(C)c3)nc2cn1 (single isomer, unassigned) [Compound 641]",–
